Reference: ChEMBL document CHEMBL1201861, “Genomics of Drug Sensitity in Cancer screening data, Wellcome Trust Sanger Institute”

Columns and labels:
Assay in all cases: cells
Details in all cases: Homo sapiens
C8166 = type: functional, cell-based;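 also: growth inhibition of human C8166 cells measured by a cell viability assay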
Description: SANGER: Inhibition of human C8166 cell growth in a cell viability assay.

NCI-H720 = type: functional, cell-based;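 also: growth inhibition of human NCI-H720 cells determined by a cell viability assay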
Description: SANGER: Inhibition of human NCI-H720 cell growth in a cell viability assay.

SK-N-DZ = type: functional, cell-based;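 also: growth inhibition of the cancer cell line, read out through a viability assay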
Description: SANGER: Inhibition of human SK-N-DZ cell growth in a cell viability assay.

EW-24 = type: functional, cell-based;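 also: human EW-24 cancer cell line, growth inhibition read out via a cell viability assay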
Description: SANGER: Inhibition of human EW-24 cell growth in a cell viability assay.

BB65-RCC = type: functional, cell-based;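 also: growth inhibition of the cell line, measured with a cell viability assay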
Description: SANGER: Inhibition of human BB65-RCC cell growth in a cell viability assay.

A3-KAW = type: functional, cell-based;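 also: growth inhibition of human A3-KAW cells, read out with a cell viability assay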
Description: SANGER: Inhibition of human A3-KAW cell growth in a cell viability assay.

NCI-H446 = type: functional, cell-based;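 also: growth inhibition of NCI-H446 cells determined by a cell viability assay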
Description: SANGER: Inhibition of human NCI-H446 cell growth in a cell viability assay.

MLMA = type: functional, cell-based;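 also: growth inhibition of MLMA cells (human), determined through a cell viability readout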
Description: SANGER: Inhibition of human MLMA cell growth in a cell viability assay.

A704 = type: functional, cell-based;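 also: growth inhibition of human A704 cells, read out with a cell viability assay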
Description: SANGER: Inhibition of human A704 cell growth in a cell viability assay.

SF-126 = type: functional, cell-based;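 also: growth inhibition of human SF126 cells, read out with a cell viability assay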
Description: SANGER: Inhibition of human SF126 cell growth in a cell viability assay.

EM-2 = type: functional, cell-based;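 also: growth inhibition of EM-2 cells, read out with a cell viability assay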
Description: SANGER: Inhibition of human EM-2 cell growth in a cell viability assay.

HEL = type: functional, cell-based;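 also: growth inhibition of HEL cells, read out with a cell viability assay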
Description: SANGER: Inhibition of human HEL cell growth in a cell viability assay.

DMS-114 = type: functional, cell-based
NCI-H82 = type: functional, cell-based;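 also: growth inhibition of NCI-H82 cells, measured with a cell viability readout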
Description: SANGER: Inhibition of human NCI-H82 cell growth in a cell viability assay.

NB13 = type: functional, cell-based;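 also: cell viability readout measuring growth inhibition of human NB13 cells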
Description: SANGER: Inhibition of human NB13 cell growth in a cell viability assay.

RCC10RGB = type: functional, cell-based;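 also: growth inhibition of human RCC10RGB cells, read out by a cell viability assay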
Description: SANGER: Inhibition of human RCC10RGB cell growth in a cell viability assay.

GCIY = type: functional, cell-based;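 also: growth inhibition of the human GCIY cell line, read out by a cell viability assay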
Description: SANGER: Inhibition of human GCIY cell growth in a cell viability assay.

MZ7-mel = type: functional, cell-based;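 also: growth inhibition of human MZ7-mel cells, measured by a cell viability assay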
Description: SANGER: Inhibition of human MZ7-mel cell growth in a cell viability assay.

TK-10 = type: functional, cell-based;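 also: growth inhibition of TK-10 cells, read out in a cell viability assay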
Description: SANGER: Inhibition of human TK10 cell growth in a cell viability assay.

DJM-1 = type: functional, cell-based;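 also: growth inhibition of human DJM-1 cells, read out by a cell viability assay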
Description: SANGER: Inhibition of human DJM-1 cell growth in a cell viability assay.

SK-MEL-2 = type: functional, cell-based;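 also: growth inhibition of human SK-MEL-2 cells measured with a cell viability assay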
Description: SANGER: Inhibition of human SK-MEL-2 cell growth in a cell viability assay.

L-363 = type: functional, cell-based
Description: SANGER: Inhibition of human L-363 cell growth in a cell viability assay.

MC116 = type: functional, cell-based;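 also: growth inhibition of MC116 cells, read out with a cell viability assay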
Description: SANGER: Inhibition of human MC116 cell growth in a cell viability assay.

LAMA-84 = type: functional, cell-based;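 also: growth inhibition of LAMA-84 cells, read out with a cell viability assay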
Description: SANGER: Inhibition of human LAMA-84 cell growth in a cell viability assay.

NB5 = type: functional, cell-based;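 also: growth inhibition of NB5 cells, read out as cell viability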
Description: SANGER: Inhibition of human NB5 cell growth in a cell viability assay.

MV4-11 = type: functional, cell-based, MV-4-11;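 also: cell viability readout measuring growth inhibition of human MV-4-11 cells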
Description: SANGER: Inhibition of human MV-4-11 cell growth in a cell viability assay.

HDLM-2 = type: functional, cell-based;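 also: cell viability assay measuring suppression of HDLM-2 proliferation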
Description: SANGER: Inhibition of human HDLM-2 cell growth in a cell viability assay.

HCC1187 = type: functional, cell-based;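 also: growth inhibition of HCC1187 cells, read out with a cell viability assay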
Description: SANGER: Inhibition of human HCC1187 cell growth in a cell viability assay.

no-10 = type: functional, cell-based;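 also: growth inhibition of no-10 cells, read out with a cell viability assay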
Description: SANGER: Inhibition of human no-10 cell growth in a cell viability assay.

Calu-6 = type: functional, cell-based;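 also: growth of human Calu-6 cells, read out by a cell viability assay, IC50 marking inhibition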
Description: SANGER: Inhibition of human Calu-6 cell growth in a cell viability assay.

DEL = type: functional, cell-based;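 also: growth inhibition of the human DEL cell line, read out with a cell viability assay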
Description: SANGER: Inhibition of human DEL cell growth in a cell viability assay.

RPMI-8866 = type: functional, cell-based
Description: SANGER: Inhibition of human RPMI-8866 cell growth in a cell viability assay.

MS-1 = type: functional, cell-based
Description: SANGER: Inhibition of human MS-1 cell growth in a cell viability assay.

Becker = type: functional, cell-based;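 also: growth inhibition of Becker cells, read out with a cell viability assay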
Description: SANGER: Inhibition of human Becker cell growth in a cell viability assay.

HC-1 = type: functional, cell-based;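 also: growth inhibition of HC-1 cells measured by a cell viability assay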
Description: SANGER: Inhibition of human HC-1 cell growth in a cell viability assay.

NCI-H23 = type: functional, cell-based;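 also: cell viability assay measuring growth inhibition of NCI-H23 cells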
Description: SANGER: Inhibition of human NCI-H23 cell growth in a cell viability assay.

GT3TKB = type: functional, cell-based;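 also: growth inhibition of the cell line, read out with a cell viability assay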
Description: SANGER: Inhibition of human GT3TKB cell growth in a cell viability assay.

TE-12 = type: functional, cell-based;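 also: growth inhibition of TE-12 cells, read out by a cell viability assay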
Description: SANGER: Inhibition of human TE-12 cell growth in a cell viability assay.

LU-139 = type: functional, cell-based
Description: SANGER: Inhibition of human LU-139 cell growth in a cell viability assay.

NOS-1 = type: functional, cell-based;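 also: growth inhibition of the human NOS-1 cell line, read out with a cell viability assay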
Description: SANGER: Inhibition of human NOS-1 cell growth in a cell viability assay.

RXF 393 = type: functional, cell-based;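 also: growth inhibition of human RXF 393 cells, read out with a cell viability assay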
Description: SANGER: Inhibition of human RXF393 cell growth in a cell viability assay.

TE-11 = type: functional, cell-based;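 also: growth inhibition of human TE-11 cells, read out by a cell viability assay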
Description: SANGER: Inhibition of human TE-11 cell growth in a cell viability assay.

IST-MEL1 = type: functional, cell-based;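 also: growth inhibition of the cell line, read out with a cell viability assay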
Description: SANGER: Inhibition of human IST-MEL1 cell growth in a cell viability assay.

ES8 = type: functional, cell-based;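 also: growth inhibition of human ES8 cells, read out with a cell viability assay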
Description: SANGER: Inhibition of human ES8 cell growth in a cell viability assay.

A388 = type: functional, cell-based;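 also: growth inhibition of human A388 cells, read out with a cell viability assay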
Description: SANGER: Inhibition of human A388 cell growth in a cell viability assay.

KGN = type: functional, cell-based;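 also: growth inhibition of KGN cells, read out with a cell viability assay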
Description: SANGER: Inhibition of human KGN cell growth in a cell viability assay.

ES3 = type: functional, cell-based;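 also: growth inhibition of ES3 cells, read out with a cell viability assay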
Description: SANGER: Inhibition of human ES3 cell growth in a cell viability assay.

NB69 = type: functional, cell-based;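 also: growth inhibition of NB69 cells, determined by a cell viability assay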
Description: SANGER: Inhibition of human NB69 cell growth in a cell viability assay.

NCI-H2126 = type: functional, cell-based;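 also: growth inhibition of the cancer cell line, determined with a cell viability readout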
Description: SANGER: Inhibition of human NCI-H2126 cell growth in a cell viability assay.

JVM-3 = type: functional, cell-based;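 also: growth inhibition of human JVM-3 cells, read out with a cell viability assay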
Description: SANGER: Inhibition of human JVM-3 cell growth in a cell viability assay.

D-502MG = type: functional, cell-based
Description: SANGER: Inhibition of human D-502MG cell growth in a cell viability assay.

SNU1 = type: functional, cell-based;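 also: growth inhibition of human NCI-SNU-1 cells, measured with a cell viability assay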
Description: SANGER: Inhibition of human NCI-SNU-1 cell growth in a cell viability assay.

NCI-H747 = type: functional, cell-based;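 also: growth inhibition of human NCI-H747 cells, read out by a cell viability assay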
Description: SANGER: Inhibition of human NCI-H747 cell growth in a cell viability assay.

IA-LM = type: functional, cell-based;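 also: cell viability assay measuring growth inhibition of human IA-LM cells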
Description: SANGER: Inhibition of human IA-LM cell growth in a cell viability assay.

KP-N-YS = type: functional, cell-based;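 also: cell viability assay measuring inhibition of cell line growth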
Description: SANGER: Inhibition of human KP-N-YS cell growth in a cell viability assay.

MZ1-PC = type: functional, cell-based;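 also: cell viability assay measuring growth inhibition of human MZ1-PC cells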
Description: SANGER: Inhibition of human MZ1-PC cell growth in a cell viability assay.

HCC2218 = type: functional, cell-based
Description: SANGER: Inhibition of human HCC2218 cell growth in a cell viability assay.

ES6 = type: functional, cell-based
Description: SANGER: Inhibition of human ES6 cell growth in a cell viability assay.

MHH-PREB-1 = type: functional, cell-based
Description: SANGER: Inhibition of human MHH-PREB-1 cell growth in a cell viability assay.

PSN1 = type: functional, cell-based
Description: SANGER: Inhibition of human PSN1 cell growth in a cell viability assay.

ES7 = type: functional, cell-based
Description: SANGER: Inhibition of human ES7 cell growth in a cell viability assay.

HOP-62 = type: functional, cell-based
Description: SANGER: Inhibition of human HOP-62 cell growth in a cell viability assay.

ES4 = type: functional, cell-based
Description: SANGER: Inhibition of human ES4 cell growth in a cell viability assay.

SBC-1 = type: functional, cell-based
Description: SANGER: Inhibition of human SBC-1 cell growth in a cell viability assay.

NCI-H1770 = type: functional, cell-based
Description: SANGER: Inhibition of human NCI-H1770 cell growth in a cell viability assay.

Compound: Cc1n[nH]c2ccc(-c3cncc(OC[C@@H](N)Cc4c[nH]c5ccccc45)c3)cc12 [A-443654]
- IC50 (C8166): > 1020 nM
- IC50 (NCI-H720): 154 nM
- IC50 (SK-N-DZ): > 1020 nM
- IC50 (EW-24): 837 nM
- IC50 (BB65-RCC): 597 nM
- IC50 (A3-KAW): 196 nM
- IC50 (NCI-H446): 395 nM
- IC50 (MLMA): 447 nM
- IC50 (A704): 261 nM
- IC50 (SF-126): 311 nM
- IC50 (EM-2): 583 nM
- IC50 (HEL): 422 nM
- IC50 (DMS-114): 983 nM
- IC50 (NCI-H82): 164 nM
- IC50 (NB13): 332 nM
- IC50 (RCC10RGB): > 1020 nM
- IC50 (GCIY): 261 nM
- IC50 (MZ7-mel): 564 nM
- IC50 (TK-10): 226 nM
- IC50 (DJM-1): 331 nM
- IC50 (SK-MEL-2): 833 nM
- IC50 (L-363): 153 nM
- IC50 (MC116): 137 nM
- IC50 (LAMA-84): 610 nM
- IC50 (NB5): 665 nM
- IC50 (MV4-11): 57.7 nM
- IC50 (HDLM-2): > 1020 nM
- IC50 (HCC1187): > 1020 nM
- IC50 (no-10): 129 nM
- IC50 (Calu-6): 137 nM
- IC50 (DEL): 231 nM
- IC50 (RPMI-8866): > 1020 nM
- IC50 (MS-1): > 1020 nM
- IC50 (Becker): 303 nM
- IC50 (HC-1): 208 nM
- IC50 (NCI-H23): > 1020 nM
- IC50 (GT3TKB): > 1020 nM
- IC50 (TE-12): 194 nM
- IC50 (LU-139): 367 nM
- IC50 (NOS-1): 93.8 nM
- IC50 (RXF 393): 657 nM
- IC50 (TE-11): 130 nM
- IC50 (IST-MEL1): 447 nM
- IC50 (ES8): 151 nM
- IC50 (A388): 84.3 nM
- IC50 (KGN): 118 nM
- IC50 (ES3): > 1020 nM
- IC50 (NB69): 227 nM
- IC50 (NCI-H2126): 309 nM
- IC50 (JVM-3): > 1020 nM
- IC50 (D-502MG): > 1020 nM
- IC50 (SNU1): 400 nM
- IC50 (NCI-H747): 82.5 nM
- IC50 (IA-LM): 200 nM
- IC50 (KP-N-YS): > 1020 nM
- IC50 (MZ1-PC): 79.5 nM
- IC50 (HCC2218): 266 nM
- IC50 (ES6): 91.5 nM
- IC50 (MHH-PREB-1): 271 nM
- IC50 (PSN1): 47.3 nM
- IC50 (ES7): > 1020 nM
- IC50 (HOP-62): 140 nM
- IC50 (ES4): 37.7 nM
- IC50 (SBC-1): 160 nM
- IC50 (NCI-H1770): > 1020 nM

Compound: Cc1nc(Nc2ncc(C(=O)Nc3c(C)cccc3Cl)s2)cc(N2CCN(CCO)CC2)n1 [DASATINIB]
- IC50 (C8166): > 1280 nM
- IC50 (NCI-H720): > 1280 nM
- IC50 (SK-N-DZ): > 1280 nM
- IC50 (EW-24): 782 nM
- IC50 (BB65-RCC): 82.3 nM
- IC50 (A3-KAW): 985 nM
- IC50 (NCI-H446): 628 nM
- IC50 (MLMA): 140 nM
- IC50 (A704): 14.9 nM
- IC50 (SF-126): 354 nM
- IC50 (EM-2): < 5 nM
- IC50 (HEL): > 1280 nM
- IC50 (DMS-114): > 1280 nM
- IC50 (NCI-H82): > 1280 nM
- IC50 (NB13): > 1280 nM
- IC50 (RCC10RGB): 491 nM
- IC50 (GCIY): 96.6 nM
- IC50 (MZ7-mel): 479 nM
- IC50 (TK-10): 11.7 nM
- IC50 (DJM-1): > 1280 nM
- IC50 (SK-MEL-2): > 1280 nM
- IC50 (L-363): > 1280 nM
- IC50 (MC116): 114 nM
- IC50 (LAMA-84): < 5 nM
- IC50 (NB5): > 1280 nM
- IC50 (MV4-11): > 1280 nM
- IC50 (HDLM-2): > 1280 nM
- IC50 (HCC1187): > 1280 nM
- IC50 (no-10): 319 nM
- IC50 (Calu-6): > 1280 nM
- IC50 (DEL): > 1280 nM
- IC50 (RPMI-8866): > 1280 nM
- IC50 (MS-1): > 1280 nM
- IC50 (Becker): 30 nM
- IC50 (HC-1): > 1280 nM
- IC50 (NCI-H23): > 1280 nM
- IC50 (GT3TKB): > 1280 nM
- IC50 (TE-12): 18.6 nM
- IC50 (LU-139): > 1280 nM
- IC50 (NOS-1): 6.13 nM
- IC50 (RXF 393): 23.6 nM
- IC50 (TE-11): 78.6 nM
- IC50 (IST-MEL1): 135 nM
- IC50 (ES8): > 1280 nM
- IC50 (A388): 50.9 nM
- IC50 (KGN): 19.4 nM
- IC50 (ES3): > 1280 nM
- IC50 (NB69): 144 nM
- IC50 (NCI-H2126): > 1280 nM
- IC50 (JVM-3): > 1280 nM
- IC50 (D-502MG): 1230 nM
- IC50 (SNU1): > 1280 nM
- IC50 (NCI-H747): 83.6 nM
- IC50 (IA-LM): > 1280 nM
- IC50 (KP-N-YS): > 1280 nM
- IC50 (MZ1-PC): 31.2 nM
- IC50 (HCC2218): > 1280 nM
- IC50 (ES6): 31.9 nM
- IC50 (MHH-PREB-1): 745 nM
- IC50 (PSN1): 44.7 nM
- IC50 (ES7): > 1280 nM
- IC50 (HOP-62): 18.3 nM
- IC50 (ES4): 1050 nM
- IC50 (SBC-1): > 1280 nM
- IC50 (NCI-H1770): > 1280 nM
